How the values were obtained:
[1] = target: JAK2 (Homo sapiens, UniProt O60674); assay: ADP-Glo JAK2 kinase assay; format: biochemical; conditions: read-out: IC50, In vitro enzyme JAK2
Method: 10 mM of Compound 1 was diluted in DMSO to prepare samples at four concentrations (5,000 nM, 500 nM, 50 nM and 5 nM). 10 mM of ATP was diluted at 1/40 in 1× kinase buffer to make a preparation. 1 mg/mL of IGFIRtide was used as a stock solution. 100 ng/μL of JAK2 enzyme was diluted at 1/20 in 1× kinase buffer to make a preparation. 1 μL of ATP, 1 μL of IGFIRtide, and 1 μL of Compound 1 prepared as above were mixed, after which 2 μL of JAK2 enzyme was finally added and reacted at 30° C. for 40 minutes. At this time, a tube without JAK2 enzyme was prepared as a blank and a tube without Compound 1 was prepared as a positive control group together (a final concentration of samples was 1,000 nM, 100 nM, 10 nM, and 1 nM).
Then, 5 μL of ADP-glo was added to each tube and reacted at 30° C. for 40 minutes, after which 10 μL of kinase detection reagent was added thereto and reacted at room temperature for 15 minutes. After 18 μL of the reactant was transferred to a 384 well plate, luminescence was measured using a plate reader.

[2] = tested on: DNCB-induced animal model (NC/Nga mice); assay: DNCB-induced atopic dermatitis model (topical); format: in vivo; conditions: for Reduction of scratching behavior compared to the control group (vehicle): week 4, FIG. 12
Method: NC/Nga mice were anesthetized with isoflurane and the dorsal hair (from the bottom of the ear to the top of the tail) was then removed. The NC/Nga mice were left for 24 hours for recovery of fine wounds on the shaved skin.
After healing, 200 μL of 1%1-chloro-2,4-dinitrobenzene (DNCB) in acetone/olive oil (3:1) was topically applied to the dorsal skin (primary skin application). Secondary skin application was performed after three days for sensitization.
Seven days after the primary skin application, 150 μL of 0.4% DNCB in acetone/olive oil (3:1) was topically applied, and applied to the dorsal skin three times a week for five weeks.
The phosphate of Compound 1 (hereinafter, referred to as a phosphate compound) obtained according to Example 3 was used as a test material, and the test material was treated before applying DNCB from two weeks after the primary skin application. The dosage of the test material was calculated based on a body weight of mice measured on the day of administration, and the test material was topically applied to atopic skin using a glass stick (a total of 56 times twice a day for 28 days, six hours at a treatment interval). 0.5% methylcellulose (0.5% MC) was administered to the control group (vehicle).
Week 6 after the primary skin application, the test animals were autopsied. Specifically, the test animals were anesthetized using isoflurane, and as much blood as possible was drawn from the caudal vena cava with a syringe and stored in a 5 mL vacuum tube containing a blood clot activator. The blood was allowed to stand at room temperature for 15-20 minutes for coagulation and then centrifuged at 3000 rpm for 10 minutes.
Atopic dermatitis scores were rated as none (0), mild (1), moderate (2), and severe (3) for each of the five symptoms (erythema, dryness, skin edema and hematoma, erosion, and keratinization). The total dermatitis score representing clinical severity was defined as the sum of all scores (maximum score: 15). The evaluation was conducted twice a week by the same researcher at the same time.
To evaluate a scratching behavior at week 4, mice were placed in cages and the frequency of scratching was evaluated for 30 minutes.
Quantitative analysis was performed using a serum IgE and histamine with ELISA kit.
After measuring a weight of the spleen and mouse, a spleen-to-body weight ratio (relative organ weight) was calculated.
TARC, TSLP, IL-4, IL-1B and TNF-α were quantified using skin tissue through qRT-PCR.
On the day of autopsy, the skin in 10% neutral buffered formalin solution was analyzed by staining with H & E and toluidine blue.

Sequence of JAK2 (O60674 whole entry, species assumed): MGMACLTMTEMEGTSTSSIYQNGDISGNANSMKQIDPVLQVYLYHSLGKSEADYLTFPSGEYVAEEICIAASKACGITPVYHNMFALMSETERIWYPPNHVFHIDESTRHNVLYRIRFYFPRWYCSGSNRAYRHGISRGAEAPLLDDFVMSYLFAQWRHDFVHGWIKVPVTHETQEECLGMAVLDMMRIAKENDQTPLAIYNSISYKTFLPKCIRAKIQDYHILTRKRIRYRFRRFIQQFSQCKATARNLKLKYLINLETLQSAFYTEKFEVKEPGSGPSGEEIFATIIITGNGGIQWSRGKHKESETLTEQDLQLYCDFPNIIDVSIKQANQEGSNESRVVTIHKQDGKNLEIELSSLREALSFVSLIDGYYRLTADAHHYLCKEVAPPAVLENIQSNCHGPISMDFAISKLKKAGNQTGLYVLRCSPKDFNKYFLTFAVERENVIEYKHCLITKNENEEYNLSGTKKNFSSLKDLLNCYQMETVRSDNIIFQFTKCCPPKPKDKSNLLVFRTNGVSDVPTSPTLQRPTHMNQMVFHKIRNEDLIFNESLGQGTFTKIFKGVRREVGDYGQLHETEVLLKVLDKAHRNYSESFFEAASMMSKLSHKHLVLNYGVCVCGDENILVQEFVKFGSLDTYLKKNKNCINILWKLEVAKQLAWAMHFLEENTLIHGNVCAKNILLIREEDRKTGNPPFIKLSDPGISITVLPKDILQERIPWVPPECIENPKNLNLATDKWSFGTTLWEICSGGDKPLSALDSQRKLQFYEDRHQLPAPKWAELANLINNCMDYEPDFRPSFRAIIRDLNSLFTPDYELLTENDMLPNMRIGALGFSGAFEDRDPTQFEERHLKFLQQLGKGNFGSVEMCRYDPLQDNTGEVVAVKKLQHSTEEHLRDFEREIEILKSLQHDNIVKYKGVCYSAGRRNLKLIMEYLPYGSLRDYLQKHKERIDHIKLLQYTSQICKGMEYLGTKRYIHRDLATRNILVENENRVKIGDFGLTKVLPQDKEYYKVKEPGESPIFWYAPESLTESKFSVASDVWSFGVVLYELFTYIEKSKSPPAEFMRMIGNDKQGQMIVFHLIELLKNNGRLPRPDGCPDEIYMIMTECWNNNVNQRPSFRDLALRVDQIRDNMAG

Row | IC50 [1] [nM] | SMILES | Reduction of scratching behavior compared to the control group (vehicle) ([2]; 3% phosphate compound) | Skin severity score (clinical atopic dermatitis score) ([2]; FIG. 11) | Spleen-to-body weight ratio ([2]; FIG. 15) | Histological properties of atopic dermatitis (skin staining) ([2]; FIG. 16) | Atopic dermatitis-related cytokines of plasma and skin ([2]; FIGS. 13 and 14) | Reduction of scratching behavior compared to the control group (vehicle) ([2]; dosed groups) | Symptoms of atopic dermatitis ([2]; twice a day for 28 days, FIGS. 11 to 16)
1 | 68 | C[C@@H]1CN(C(=O)CC#N)CC=C1c1cc(NC(=O)C2CC2)nc2[nH]ccc12 [Compound 1, (S)—N-(4-(1-(2-cyanoacetyl)-3-methyl-1,2,3,6-tetrahydropyridin-4-yl)-1H-pyrrolo[2,3-b]pyridin-6-yl)cyclopropanecarboxamide] | – | – | – | – | – | – | –
2 | – | C[C@@H]1CN(C(=O)CC#N)CC=C1c1cc(NC(=O)C2CC2)nc2[nH]ccc12 [Example 3, (S)—N-(4-(1-(2-cyanoacetyl)-3-methyl-1,2,3,6-tetrahydropyridin-4-yl)-1H-pyrrolo[2,3-b]pyridin-6-yl)cyclopropanecarboxamide] | at least 50% | significantly reduced | decreased | changes the histological properties of atopic dermatitis | reduced | at least 30% | ameliorates symptoms of atopic dermatitis
